Measured values taken from publication PMC9021288 (Nature Communications, 2022).
“And” between values parts separate entries of the source, which are not always exact repeats. Equal entries are not always repeated. Where two headings read alike, the source gives them in different places.

Experiments:
[1] = system: P. falciparum Pf3D7^0087/N9; assay: Single dose in vivo efficacy in humanized NSG mice; parameters: species or system Plasmodium falciparum; conditions: for parasitemia outcome: single 50 mg/kg oral gavage on day 4, over three days
Method: The effect of pantothenamides on P. falciparum Pf3D7^0087/N9 [66] in vivo was assessed in female NSG mice (NODscidIL2Rγ^null) at the Swiss Tropical and Public Health Institute (Basel, Switzerland) as described previously (Supplementary Table 30)[15],[67]. Briefly, humanized mice were engrafted daily with human erythrocyte suspensions from days -11 to day 6. […] On day 4, groups of n = 2 mice were treated with a single dose pantothenamides or chloroquine (50 mg/kg) by oral gavage. […] Serial dilutions were prepared in the same solvent to concentrations 50 times higher than the corresponding CAL and QC concentrations. The concentrations were calculated under consideration of purity and salt factor. The spiking of the CAL and QC sample were performed at room temperature.

[2] = Crystal screening (XRPD); assay type: physicochemical; conditions: 36 conditions
Method: Crystal screening for each further characterized pantothenamide was performed by a commercial service (Crystal Pharmatech Co., Ltd.) under 36 conditions using a variety of crystallization methods, including liquid vapor diffusion, slow evaporation, slurry conversion and salt/co-crystal formation and solvents. X-ray power diffraction (XRPD) patterns were collected by Bruker X-ray powder diffractometers.

[3] = Blood concentration and PK in infected NSG mice after single oral dose; assay type: in vivo, mouse
Method: The effect of pantothenamides on P. falciparum Pf3D7^0087/N9 [66] in vivo was assessed in female NSG mice (NODscidIL2Rγ^null) at the Swiss Tropical and Public Health Institute (Basel, Switzerland) as described previously (Supplementary Table 30)[15],[67]. Briefly, humanized mice were engrafted daily with human erythrocyte suspensions from days -11 to day 6. After 11 days (day 0), mice were injected intravenously with 3×10^7 infected RBCs in a volume of 0.1 ml. On day 4, groups of n = 2 mice were treated with a single dose pantothenamides or chloroquine (50 mg/kg) by oral gavage. The hematocrit of all dosed mice and an untreated control group (n = 4 mice) was determined by fluorescence-activated cell sorting and parasitemia was analyzed by microscopy on >10,000 RBCs as described before. Samples to quantify compound metabolites were collected and prepared at different time points (1, 2, 4, 6, and 24 h after treatment) for each mouse by mixing 20 µl of whole blood with 20 µl of Milli-Q, followed by immediate freezing of samples on dry ice. […] Serial dilutions were prepared in the same solvent to concentrations 50 times higher than the corresponding CAL and QC concentrations. The concentrations were calculated under consideration of purity and salt factor. The spiking of the CAL and QC sample were performed at room temperature. The eight calibration levels were 5.00, 10.0, 50.0, 100, 500, 1000, 3750, and 5000 ng/mL and three QC levels 15.0, 100, and 3750 ng/mL were analyzed in duplicate, together with the study samples.
For the sample precipitation, to an aliquot of 10 µL mouse blood/water (1/1) study sample, 20 µL of acetonitrile containing the internal standard MMV1542001 at a concentration of 100 ng/mL was added. After vortex mixing, the samples were centrifuged for 10 min at 50,000 g at 8 °C. Subsequently, an aliquot of 20 µL of the supernatant was transferred to an autosampler vial and an aliquot of 5 µL was injected onto the LC-MS/MS system.
The samples were handled by an autosampler CTC PAL (CTC Analytics AG, Zwingen, Switzerland) set at 8 °C. The chromatography column used was a YMC Hydrosphere C18, 2.1 × 33 mm, 3 µm (YMC Co. Ltd., Kyoto, Japan), kept at room temperature. The aqueous mobile phase consisted of water containing 0.1 % formic acid, whereas the organic mobile phase consisted of acetonitrile containing 0.1 % formic acid, pumped by HPLC pump from Agilent 1200 series (Agilent Technologies Inc, Santa Clara, CA, USA). The HPLC gradient was as follows: 95% phase A, 5% phase B for 0.20 min, followed by transition to 5% phase A, 95% phase B in 1 min, 2 min at these concentrations, and a subsequent increase to 95% phase A, 5% phase B in 0.05 min which is kept for the remaining 0.75 min.
The detection of MMV693183 was performed using a TSQ Access mass spectrometer (Thermo Fisher Scientific, San Jose, CA, USA) by selected reaction monitoring. The ion source was heated electrospray ionization, using a negative polarity. Following parameters were used: Voltage 2500 [V], Vaporizer temperature 350 [°C], Sheath gas 60 [au], Auxiliary gas 5 [au], Capillary temperature 350 [°C] and Collision gas pressure 1.0 [mTorr]. […] The transition used for the internal standard was: parent ion 325.030 m/z—daughter ion 195.000 m/z.
The concentration of the analyte was calculated using the internal standardization method. The area ratio of analyte to internal standard against the concentration of calibration samples was used for quantification. The acquisition and processing of data were performed using LCquan 2.5.6 and Xcalibur 2.0.7. Microsoft Office Excel 2007 Prof was used for calculations and statistical evaluation of data. […] The Lower Limit of Quantification was 5.00 ng/mL in […], whereas The Upper Limit of Quantification was 5000 ng/mL in mouse blood/water (1/1).

[4] = day 5 post infection, 50 mg/kg p.o. on day 4, per mouse, 50 mg/kg
[5] = day 6 post infection, per mouse
[6] = day 7 post infection, per mouse

| SMILES | Parasitemia [1, 4] | Parasitemia [1, 5] | Parasitemia [1, 6] | parasitemia outcome [1] | Crystalline [2] | AUC0-24h ([3]; 50 mg/kg p.o.) | Cmax ([3]; 50 mg/kg p.o.) | T1/2 ([3]; 50 mg/kg p.o.) | Tmax ([3]; 50 mg/kg p.o.) | concentration in blood ([3]; 1 h post treatment, per mouse) | concentration in blood ([3]; 2 h post treatment, per mouse) | concentration in blood ([3]; 4 h post treatment, per mouse) | concentration in blood ([3]; 6 h post treatment, per mouse) | concentration in blood ([3]; 24 h post treatment, per mouse) | concentration at 1 h ([3]; female, NSG (NODscidIL2Rγnull), mouse, whole blood, oral, 50 mg/kg, 1 h post treatment, per mouse) | concentration at 4 h ([3]; female, NSG (NODscidIL2Rγnull), mouse, whole blood, oral, 50 mg/kg, 4 h post treatment, per mouse) | half-life ([3]; female, NSG (NODscidIL2Rγnull), mouse, whole blood, po, 50 mg/kg p.o.) | AUC(0 - t) ([3]; female, NSG (NODscidIL2Rγnull), mouse, whole blood, po, 50 mg/kg p.o., read-out: AUC0-24h) | Cmax ([3]; female, NSG (NODscidIL2Rγnull), mouse, whole blood, po, 50 mg/kg p.o., read-out: Cmax) | Tmax ([3]; female, NSG (NODscidIL2Rγnull), mouse, whole blood, po, 50 mg/kg p.o., read-out: Tmax) |
| --- | --- | --- | --- | --- | --- | --- | --- | --- | --- | --- | --- | --- | --- | --- | --- | --- | --- | --- | --- | --- |
| C[C@@H](CNC(=O)[C@H](O)C(C)(C)CO)NC(=O)c1cc(F)c(F)cc1F [MMV693183] | 0.2 and 0.29 | 0.03 and 0.02 | 0 | reduced parasitemias below detectable levels | Yes | 33700 ng·h/mL | 12900 ng/mL | 2.49 h | 1.50 h | 6960 ng/mL and 16200 ng/mL | 9660 ng/mL and 7300 ng/mL | 2360 ng/mL and 1170 ng/mL | 802 ng/mL and 376 ng/mL | 10 ng/mL |  |  |  |  |  |  |
| CC(C)(CO)[C@@H](O)C(=O)NCCNC(=O)c1cc(C#N)ccc1F [MMV976394] | 0.56 and 0.41 | 0.32 | 0.17 | not fully cleared | No | 10800 ng·h/mL | 5810 ng/mL | 2.95 h | 1.00 h | 6840 ng/mL and 4780 ng/mL | 1230 ng/mL and 1500 ng/mL | 450 ng/mL and 356 ng/mL | 204 ng/mL and 214 ng/mL | 10 ng/mL |  |  |  |  |  |  |
| CC(CNC(=O)C(O)C(C)(C)CO)NC(=O)CCc1ccccc1F (stereo in doubt) [MMV689258] | 0.26 and 0.2 | 0.15 and 0.1 | 0.22 and 0.12 | not fully cleared | Yes | 6730 ng·h/mL | 3780 ng/mL | 3.26 h | 1.00 h | 3100 ng/mL and 4460 ng/mL | 1090 ng/mL and 698 ng/mL | 368 ng/mL and 236 ng/mL | 91.8 ng/mL and 110 ng/mL | 10 ng/mL |  |  |  |  |  |  |
| C[C@@H](CNC(=O)[C@H](O)C(C)(C)CO)NC(=O)c1cc(C#N)ccc1F [MMV693182] | 0.28 and 0.38 | 0.03 and 0.05 | 0.02 | not fully cleared | Yes |  |  |  |  | 4180 ng/mL | 2200 ng/mL and 1000 ng/mL | 866 ng/mL | 266 ng/mL and 912 ng/mL | 10 ng/mL and 22.4 ng/mL | 6360 ng/mL | 552 ng/mL | 3.19 h | 15100 ng·h/mL | 5270 ng/mL | 1 h |
| C[C@@H](CNC(=O)[C@H](O)C(C)(C)CO)NC(=O)c1cccc(C#N)c1 (stereo in doubt) [MMV884962] | 0.31 and 0.28 | 0.05 | 0 | reduced parasitemias below detectable levels | No | 8650 ng·h/mL | 3920 ng/mL | 3.32 h | 1.00 h | 3920 ng/mL | 1180 ng/mL and 1170 ng/mL | 468 ng/mL and 370 ng/mL | 222 ng/mL and 193 ng/mL | 13 ng/mL and 10 ng/mL |  |  |  |  |  |  |
| C[C@@H](CNC(=O)[C@H](O)C(C)(C)CO)NC(=O)c1cccc(F)c1 (stereo in doubt) [MMV1542001] | 0.4 and 0.31 | 0.06 and 0.01 | 0 | reduced parasitemias below detectable levels | No | 11800 ng·h/mL | 5150 ng/mL | 2.80 h | 1.00 h | 4480 ng/mL and 5820 ng/mL | 1520 ng/mL and 1620 ng/mL | 492 ng/mL and 574 ng/mL | 314 ng/mL and 340 ng/mL | 10 ng/mL |  |  |  |  |  |  |
